In PMC10388636 (Nature structural & molecular biology, 2022) one finds Kd data, which are given here for two compounds.

Structures are written as SMILES. pKd: −log10 of the molar value.

Experiment [1] deals with SARS-CoV-2 nsp14/nsp10 complex (Severe acute respiratory syndrome coronavirus 2, UniProt P0DTD1). Description: ITC binding to full-length nsp14/nsp10 complex.
The target in experiment [2] is TEL-MTase fusion (nsp14 N7-MTase-TELSAM) (Severe acute respiratory syndrome coronavirus 2, UniProt P0DTD1). The experiment can be described thus: ITC binding to TEL-MTase fusion. On the set-up: species or system SARS-CoV-2.
Experiment [3] addresses SARS-CoV-2 MTase domain (residues 289–527) (Severe acute respiratory syndrome coronavirus 2, UniProt P0DTD1). Description: ITC binding to isolated MTase domain.

In the case of `Nc1ncnc2c1ncn2[C@@H]1O[C@H](CSCC[C@H](N)C(=O)O)[C@@H](O)[C@H]1O` [SAH, S-adenosylhomocysteine], the results for the pKd in experiment [1] and in experiment [2] were 6.52 and 5.30, respectively.
Turning to `C[S+](CC[C@H](N)C(=O)[O-])C[C@H]1O[C@@H](n2cnc3c(N)ncnc32)[C@H](O)[C@@H]1O` (stereo partly shown) [SAM, S-adenosylmethionine], the values for the pKd in experiment [1] and in experiment [3] were 5.24 and 4.60 to 4.66, respectively.
